Laboratory results from ChEMBL document CHEMBL4342484, “Structure-Activity Relationship for the Oxadiazole Class of Antibacterials” (ACS Med Chem Lett, 2020).
≈ marks a conversion by molar mass, not a printed value. Calls of active or inactive are those of the source. The calls are words filed in the database; no cut-off is given here.

Experiments:
[1] = Drug level in mouse thigh infected with linezolid-sensitive Staphylococcus aureus NRS70 at 40 mg/kg, po administered 1 hrs post infection and measured for 48 hrs; format: ADME, organism-based; settings: read-out: Drug uptake
[2] = Terminal half life in ICR mouse at 20 mg/kg, iv measured for 24 hrs by UPLC analysis; format: ADME, organism-based; settings: in vivo, read-out: beta t1/2 (converted)
[3] = Volume of distribution in ICR mouse at 20 mg/kg, iv measured for 24 hrs by UPLC analysis; format: ADME, organism-based; settings: in vivo
[4] = Cmax in ICR mouse at 20 mg/kg, po administered as via gavage measured for 36 hrs by UPLC analysis; format: ADME, organism-based; set-up: dose 20 mg/kg, route oral; settings: in vivo
Enterococcus faecalis [5] = assay: Antibacterial activity against vancomycin-resistant Enterococcus faecalis 99 clinical isolate by broth microdilution method; format: functional
Bacillus licheniformis = assay: Antibacterial activity against Bacillus licheniformis ATCC 12759 by broth microdilution method; format: functional
[6] = Clearance in ICR mouse at 20 mg/kg, iv measured for 24 hrs by UPLC analysis; format: ADME, organism-based; settings: in vivo
Staphylococcus aureus [7] = assay: Antibacterial activity against Staphylococcus aureus ATCC 27660 infected in mouse model of peritonitis at 20 mg/kg, iv dosed at 30 mins and 7.5 hrs post infection and measured for 2 days
[8] = AUC (0 to infinity) in ICR mouse at 20 mg/kg, po administered as via gavage measured for 36 hrs by UPLC analysis; format: ADME, organism-based; set-up: dose 20 mg/kg, route oral, time infinity; settings: in vivo
Enterococcus faecalis [9] = assay: Antibacterial activity against Enterococcus faecalis ATCC 29212 by broth microdilution method; format: functional
[10] = Plasma protein binding in human at […] incubated for 2 hrs by UPLC analysis; format: ADME, cell-free; settings: read-out: PPB (converted)
[11] = tested on: Staphylococcus epidermidis; assay: Antibacterial activity against Staphylococcus epidermidis ATCC 35547 by broth microdilution method; format: functional
[12] = Drug level in mouse thigh infected with linezolid-resistant Staphylococcus aureus NRS119 at 40 mg/kg, po administered 1 hrs post infection and measured for 48 hrs; format: ADME, organism-based; settings: read-out: Drug uptake
Enterococcus faecalis [13] = assay: Antibacterial activity against vancomycin-susceptible Enterococcus faecalis 201 clinical isolate by broth microdilution method; format: functional
[14] = AUC (0 to last) in ICR mouse at 20 mg/kg, po administered as via gavage measured for 36 hrs by UPLC analysis; format: ADME, organism-based; settings: in vivo
[15] = Distribution half life in ICR mouse at 20 mg/kg, iv measured for 24 hrs by UPLC analysis; format: ADME, organism-based; settings: in vivo, read-out: alphat1/2 (converted)
Staphylococcus aureus [16] = assay: Antibacterial activity against Staphylococcus aureus NRS100 (COL) by broth microdilution method; format: functional
Staphylococcus aureus [17] = assay: Antibacterial activity against Staphylococcus aureus ATCC 27660 by broth microdilution method; format: functional
HepG2 = assay: Cytotoxicity against human HepG2 cells assessed as reduction in cell viability by XTT assay; format: cell-based
[18] = AUC (0 to last) in ICR mouse at 20 mg/kg, iv measured for 24 hrs by UPLC analysis; format: ADME, organism-based; settings: in vivo
[19] = Terminal half life in ICR mouse at 20 mg/kg, po administered as via gavage measured for 36 hrs by UPLC analysis; format: ADME, organism-based; settings: in vivo, read-out: beta t1/2 (converted)
Staphylococcus aureus [20] = assay: Antibacterial activity against linezolid-sensitive Staphylococcus aureus NRS70 infected in mouse model of neutropenic thigh infection assessed as reduction in bacterial count at 40 mg/kg, po administered 1 hrs post infection and measured for 48 hrs; format: functional
Staphylococcus aureus [21] = assay: Antibacterial activity against Staphylococcus aureus NRS119 by broth microdilution method; format: functional
Staphylococcus aureus [22] = assay: Antibacterial activity against vancomycin-resistant Staphylococcus aureus VRS2 clinical isolate by broth microdilution method; format: functional
Staphylococcus aureus [23] = assay: Antibacterial activity against Staphylococcus aureus NRS120 by broth microdilution method; format: functional
Staphylococcus aureus [24] = assay: Antibacterial activity against Staphylococcus aureus ATCC 29213 by broth microdilution method; format: functional
[25] = Hemolytic activity in human RBC relative to control; format: ADME, cell-based, Erythrocyte; settings: red blood cells (erythrocytes), read-out: Activity
[26] = AUC (0 to infinity) in ICR mouse at 20 mg/kg, iv measured for 24 hrs by UPLC analysis; format: ADME, organism-based; set-up: dose 20 mg/kg, time infinity, route intravenous; settings: in vivo
Staphylococcus aureus [27] = assay: Antibacterial activity against Staphylococcus aureus N315 (NRS70) by broth microdilution method; format: functional
[28] = Tmax in ICR mouse at 20 mg/kg, po administered as via gavage measured for 36 hrs by UPLC analysis; format: ADME, organism-based; settings: in vivo
[29] = Distribution half life in ICR mouse at 20 mg/kg, po administered as via gavage measured for 36 hrs by UPLC analysis; format: ADME, organism-based; settings: in vivo, read-out: alphat1/2 (converted)
Enterococcus faecium [30] = assay: Antibacterial activity against vancomycin-susceptible Enterococcus faecium 119-39A clinical isolate by broth microdilution method; format: functional
Staphylococcus aureus [31] = assay: Antibacterial activity against linezolid-resistant Staphylococcus aureus NRS119 infected in mouse model of neutropenic thigh infection assessed as reduction in bacterial count at 40 mg/kg, po administered […]; format: functional
Staphylococcus aureus [32] = assay: Antibacterial activity against vancomycin-resistant Staphylococcus aureus VRS1 clinical isolate by broth microdilution method; format: functional
[33] = tested on: Staphylococcus haemolyticus; assay: Antibacterial activity against Staphylococcus haemolyticus ATCC 29970 by broth microdilution method; format: functional
Enterococcus faecium [34] = assay: Antibacterial activity against vancomycin-resistant Enterococcus faecium 106 clinical isolate by broth microdilution method; format: functional
Bacillus cereus = assay: Antibacterial activity against Bacillus cereus ATCC 13061 by broth microdilution method; format: functional
Enterococcus faecium [35] = assay: Antibacterial activity against Enterococcus faecium NCTC 7171 by broth microdilution method; format: functional
[36] = Oral bioavailability in ICR mouse at 20 mg/kg administered as via gavage measured for 36 hrs by UPLC analysis; format: ADME, organism-based; settings: in vivo

Fc1ccc(Oc2ccc(-c3noc(-c4ccc5[nH]ccc5c4)n3)cc2)cc1
concentration at 48 h [1]: 5800 ng/g | half-life [2]: 21.1 h | Vd [3]: 14.2 L/kg | Cmax [4]: 1000 ng/mL | MIC (Enterococcus faecalis [5]): 4 µg/mL (≈ 10.8 µM) | MIC (Bacillus licheniformis): 2 µg/mL (≈ 5.39 µM) | clearance [6]: 7.8 mL/min/kg | Activity (Staphylococcus aureus [7]): Active | AUC [8]: 1040 uM.min/ml | MIC (Enterococcus faecalis [9]): 4 µg/mL (≈ 10.8 µM) | fraction unbound at 2 h [10]: 0.012 | MIC [11]: 1 µg/mL (≈ 2.69 µM) | concentration at 48 h [12]: 6400 ng/g | MIC (Enterococcus faecalis [13]): 4 µg/mL (≈ 10.8 µM) | AUClast [14]: 718 uM.min/ml | half-life [15]: 0.4 h | MIC (Staphylococcus aureus [16]): 2 µg/mL (≈ 5.39 µM) | MIC (Staphylococcus aureus [17]): 2 to 4 µg/mL (≈ 5.39 to 10.8 µM) | IC50 (HepG2): 37 µg/mL (≈ 99.6 µM) | AUClast [18]: 1790 uM.min/ml | half-life [19]: 17 h | Activity (Staphylococcus aureus [20]): 1.1 log10CFU | MIC (Staphylococcus aureus [21]): 1 to 2 µg/mL (≈ 2.69 to 5.39 µM) | MIC (Staphylococcus aureus [22]): 1 µg/mL (≈ 2.69 µM) | MIC (Staphylococcus aureus [23]): 2 µg/mL (≈ 5.39 µM) | MIC (Staphylococcus aureus [24]): 1 to 2 µg/mL (≈ 2.69 to 5.39 µM) | hemolysis [25]: < 1% | AUC [26]: 2570 uM.min/ml | MIC (Staphylococcus aureus [27]): 1 µg/mL (≈ 2.69 µM) | Tmax [28]: 2.5 h | half-life [29]: 6.2 h | MIC (Enterococcus faecium [30]): 1 µg/mL (≈ 2.69 µM) | Activity (Staphylococcus aureus [31]): 1.5 log10CFU | MIC (Staphylococcus aureus [32]): 1 µg/mL (≈ 2.69 µM) | MIC [33]: 2 µg/mL (≈ 5.39 µM) | MIC (Enterococcus faecium [34]): 1 µg/mL (≈ 2.69 µM) | MIC (Bacillus cereus): 4 µg/mL (≈ 10.8 µM) | MIC (Enterococcus faecium [35]): 1 µg/mL (≈ 2.69 µM) | bioavailability [36]: 41%

CC(=O)NC[C@H]1CN(c2ccc(N3CCOCC3)c(F)c2)C(=O)O1 [LINEZOLID]
MIC (Bacillus licheniformis): 0.5 µg/mL (≈ 1.48 µM) | MIC [11]: 0.5 µg/mL (≈ 1.48 µM) | MIC (Staphylococcus aureus [16]): 1 µg/mL (≈ 2.96 µM) | MIC (Staphylococcus aureus [17]): 1 µg/mL (≈ 2.96 µM) | MIC (Staphylococcus aureus [21]): 32 µg/mL (≈ 94.9 µM) | MIC (Staphylococcus aureus [22]): 1 µg/mL (≈ 2.96 µM) | MIC (Staphylococcus aureus [23]): 32 µg/mL (≈ 94.9 µM) | MIC (Staphylococcus aureus [27]): 1 µg/mL (≈ 2.96 µM) | MIC (Enterococcus faecium [30]): 1 µg/mL (≈ 2.96 µM) | MIC (Staphylococcus aureus [32]): 1 µg/mL (≈ 2.96 µM) | MIC [33]: 1 µg/mL (≈ 2.96 µM) | MIC (Enterococcus faecium [34]): 1 µg/mL (≈ 2.96 µM) | MIC (Bacillus cereus): 0.5 µg/mL (≈ 1.48 µM) | MIC (Enterococcus faecium [35]): 1 µg/mL (≈ 2.96 µM)

FC(F)(F)c1ccc(Oc2ccc(-c3noc(-c4ccc5[nH]ccc5c4)n3)cc2)cc1
concentration at 48 h [1]: 7600 ng/g | MIC (Enterococcus faecalis [5]): 4 µg/mL (≈ 9.49 µM) | MIC (Bacillus licheniformis): 8 µg/mL (≈ 19 µM) | MIC (Enterococcus faecalis [9]): 8 µg/mL (≈ 19 µM) | MIC [11]: 2 µg/mL (≈ 4.75 µM) | concentration at 48 h [12]: 6000 ng/g | MIC (Enterococcus faecalis [13]): 4 µg/mL (≈ 9.49 µM) | MIC (Staphylococcus aureus [16]): 2 µg/mL (≈ 4.75 µM) | MIC (Staphylococcus aureus [17]): 4 µg/mL (≈ 9.49 µM) | MIC (Staphylococcus aureus [21]): 2 µg/mL (≈ 4.75 µM) | MIC (Staphylococcus aureus [22]): 2 µg/mL (≈ 4.75 µM) | MIC (Staphylococcus aureus [23]): 2 µg/mL (≈ 4.75 µM) | MIC (Staphylococcus aureus [24]): 2 to 4 µg/mL (≈ 4.75 to 9.49 µM) | MIC (Staphylococcus aureus [27]): 2 µg/mL (≈ 4.75 µM) | MIC (Enterococcus faecium [30]): 1 µg/mL (≈ 2.37 µM) | MIC (Staphylococcus aureus [32]): 2 µg/mL (≈ 4.75 µM) | MIC [33]: 4 to 8 µg/mL (≈ 9.49 to 19 µM) | MIC (Enterococcus faecium [34]): 2 µg/mL (≈ 4.75 µM) | MIC (Bacillus cereus): 16 µg/mL (≈ 38 µM) | MIC (Enterococcus faecium [35]): 2 µg/mL (≈ 4.75 µM)
